Assay results as given in PubChem BioAssay (NCI).
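GI50: concentration for 50% inhibition of growth. At the TGI there is no net growth.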

Legend:
Assay in all cases: inhibition of tumour cell growth, NCI panel, 384-well format; in the data active = GI50 below about 0.43 µM; inactive = the rest
MCF7 breast = test system: MCF7 breast
EKVX NSCLC = test system: EKVX NSCLC
OVCAR-5 ovarian = test system: OVCAR-5 ovarian
UO-31 renal = test system: UO-31 renal
SR leukemia = test system: SR leukemia
MALME-3M melanoma = test system: MALME-3M melanoma
CAKI-1 renal = test system: CAKI-1 renal
MOLT-4 leukemia = test system: MOLT-4 leukemia
SW-620 colon = test system: SW-620 colon
CCRF-CEM leukemia = test system: CCRF-CEM leukemia
DU-145 prostate = test system: DU-145 prostate
HL-60(TB) leukemia = test system: HL-60(TB) leukemia
A549 NSCLC = test system: A549 NSCLC
UACC-62 melanoma = test system: UACC-62 melanoma
SF-539 CNS = test system: SF-539 CNS
A498 renal = test system: A498 renal
HS 578T breast = test system: HS 578T breast
ACHN renal = test system: ACHN renal
NCI-H226 lung = test system: NCI-H226 lung
HCT-15 colon = test system: HCT-15 colon
MDA-MB-468 breast = test system: MDA-MB-468 breast
NCI-H522 lung = test system: NCI-H522 lung
NCI-H322M lung = test system: NCI-H322M lung
RXF 393 renal = test system: RXF 393 renal
NCI-H23 lung = test system: NCI-H23 lung
PC-3 prostate = test system: PC-3 prostate
M14 melanoma = test system: M14 melanoma
KM12 colon = test system: KM12 colon
OVCAR-3 ovarian = test system: OVCAR-3 ovarian
SN12C renal = test system: SN12C renal
TK-10 renal = test system: TK-10 renal
UACC-257 melanoma = test system: UACC-257 melanoma
NCI/ADR-RES ovarian = test system: NCI/ADR-RES ovarian
SF-268 CNS = test system: SF-268 CNS
HOP-92 NSCLC = test system: HOP-92 NSCLC
BT-549 breast = test system: BT-549 breast
OVCAR-8 ovarian = test system: OVCAR-8 ovarian
T-47D breast = test system: T-47D breast
U251 glioblastoma = test system: U251 glioblastoma
SK-MEL-2 melanoma = test system: SK-MEL-2 melanoma
MDA-MB-435 melanoma = test system: MDA-MB-435 melanoma
K-562 leukemia = test system: K-562 leukemia
OVCAR-4 ovarian = test system: OVCAR-4 ovarian
COLO 205 colon = test system: COLO 205 colon
HOP-62 NSCLC = test system: HOP-62 NSCLC
HT29 colon = test system: HT29 colon
IGROV1 ovarian = test system: IGROV1 ovarian

C[C@@H](O)[C@H](NC(=O)N[C@@H](CC(N)=O)c1nc([C@@H](N)CO)no1)C(=O)O
> 100 µM: TGI (MCF7 breast) | TGI (EKVX NSCLC) | TGI (OVCAR-5 ovarian) | TGI (UO-31 renal) | TGI (SR leukemia) | TGI (MALME-3M melanoma) | TGI (CAKI-1 renal) | TGI (MOLT-4 leukemia) | TGI (SW-620 colon) | TGI (CCRF-CEM leukemia) | TGI (DU-145 prostate) | TGI (HL-60(TB) leukemia) | TGI (A549 NSCLC) | TGI (UACC-62 melanoma) | TGI (SF-539 CNS) | TGI (A498 renal) | TGI (HS 578T breast) | TGI (ACHN renal) | TGI (NCI-H226 lung) | TGI (HCT-15 colon) | TGI (MDA-MB-468 breast) | TGI (NCI-H522 lung) | TGI (NCI-H322M lung) | TGI (RXF 393 renal) | TGI (NCI-H23 lung) | TGI (PC-3 prostate) | TGI (M14 melanoma) | TGI (KM12 colon) | TGI (OVCAR-3 ovarian) | TGI (SN12C renal) | TGI (TK-10 renal) | TGI (UACC-257 melanoma) | TGI (NCI/ADR-RES ovarian) | TGI (SF-268 CNS) | TGI (HOP-92 NSCLC) | TGI (BT-549 breast) | TGI (OVCAR-8 ovarian) | TGI (T-47D breast) | TGI (U251 glioblastoma) | TGI (SK-MEL-2 melanoma) | TGI (MDA-MB-435 melanoma) | TGI (K-562 leukemia) | TGI (OVCAR-4 ovarian) | TGI (COLO 205 colon) | TGI (HOP-62 NSCLC) | TGI (HT29 colon) | TGI (IGROV1 ovarian)
inactive: GI50 (MCF7 breast) > 100 µM | GI50 (EKVX NSCLC) > 100 µM | GI50 (OVCAR-5 ovarian) > 100 µM | GI50 (UO-31 renal) > 100 µM | GI50 (SR leukemia) > 100 µM | GI50 (MALME-3M melanoma) > 100 µM | GI50 (CAKI-1 renal) > 100 µM | GI50 (MOLT-4 leukemia) > 100 µM | GI50 (SW-620 colon) > 100 µM | GI50 (CCRF-CEM leukemia) > 100 µM | GI50 (DU-145 prostate) > 100 µM | GI50 (HL-60(TB) leukemia) > 100 µM | GI50 (A549 NSCLC) > 100 µM | GI50 (UACC-62 melanoma) > 100 µM | GI50 (SF-539 CNS) > 100 µM | GI50 (A498 renal) > 100 µM | GI50 (HS 578T breast) > 100 µM | GI50 (ACHN renal) > 100 µM | GI50 (NCI-H226 lung) > 100 µM | GI50 (HCT-15 colon) > 100 µM | GI50 (MDA-MB-468 breast) > 100 µM | GI50 (NCI-H522 lung) > 100 µM | GI50 (NCI-H322M lung) > 100 µM | GI50 (RXF 393 renal) > 100 µM | GI50 (NCI-H23 lung) > 100 µM | GI50 (PC-3 prostate) > 100 µM | GI50 (M14 melanoma) > 100 µM | GI50 (KM12 colon) > 100 µM | GI50 (OVCAR-3 ovarian) > 100 µM | GI50 (SN12C renal) > 100 µM | GI50 (TK-10 renal) > 100 µM | GI50 (UACC-257 melanoma) > 100 µM | GI50 (NCI/ADR-RES ovarian) > 100 µM | GI50 (SF-268 CNS) > 100 µM | GI50 (HOP-92 NSCLC) > 100 µM | GI50 (BT-549 breast) > 100 µM | GI50 (OVCAR-8 ovarian) > 100 µM | GI50 (T-47D breast) > 100 µM | GI50 (U251 glioblastoma) > 100 µM | GI50 (SK-MEL-2 melanoma) > 100 µM | GI50 (MDA-MB-435 melanoma) > 100 µM | GI50 (K-562 leukemia) > 100 µM | GI50 (OVCAR-4 ovarian) > 100 µM | GI50 (COLO 205 colon) > 100 µM | GI50 (HOP-62 NSCLC) > 100 µM | GI50 (HT29 colon) > 100 µM | GI50 (IGROV1 ovarian) > 100 µM
